Measured values from patent US20140221286A1, “SODIUM CHANNEL BLOCKERS REDUCE GLUCAGON SECRETION” (Gilead Sciences, Inc., priority 2011, published 2014).

Assays:
[1] = test system: STZ-induced diabetic mice; experiment: STZ-induced diabetic mouse, animal model of type 1 diabetes; format: in vivo
Procedure: Streptozotocin (STZ) induces diabetes by selectively destroying the pancreatic β-cells. Five-week old male C57BL/6J mice were injected with STZ (40 mg/kg, i.p., dissolved in cold 0.025 mol/L sodium citrate-buffered solution at pH 4.5, freshly made right before injection) for 5 consecutive days to induce diabetes. Fasting plasma glucose (FPG) levels were determined 2 days after STZ treatment. Diabetic mice were then divided into STZ+vehicle and STZ+ranolazine group (10 mice/group) based on body weight (BW) and blood glucose levels. Age and gender matched non-diabetic mice were used as “normal” controls (n=3). For the following 8 weeks, mice were given either vehicle or ranolazine (20 mg/kg in water, p.o., twice daily). BW and FPG levels were monitored once a week. HbA1c levels were measured using a DCA 2000+ clinical analyzer (Siemens) at 0, 4 and 8 weeks of treatment. At the end of the treatment, pancreases from all groups were collected, fixed in 10% formalin overnight and then embedded in paraffin. HE staining and fluorescent staining were performed to review the islet morphology in all groups.

rat pancreatic islets [2] = experiment: Epinephrine-induced glucagon secretion in rat pancreatic islets; format: cell-based; conditions: epinephrine 5 μM; at 30 μM
rat pancreatic islets [3] = experiment: Glucagon secretion in rat pancreatic islets under low glucose (3 mM), ELISA; format: cell-based; conditions: 3 mM glucose
ZDF diabetic rats = experiment: ZDF diabetic rats, animal model of type 2 diabetes; format: in vivo, rat; conditions: for water consumption (surrogate marker for diabetes) / HbA1c levels versus vehicle group / fasting plasma glucose levels versus vehicle: in Purina 5008 diet; for water consumption (surrogate marker for diabetes): during diabetes development; for HbA1c levels versus vehicle group: weeks 4, 6 and 8; for fasting plasma glucose levels versus vehicle: weeks 7 and 9
Procedure: All sections from fluorescent staining were viewed under fluorescent microscope and the stained areas were digitally photographed at a magnification of 20×. The images taken at different magnification were normalized using the standard ruler grade (S1 Finder Graticule, 68040, Electron Microscopy Science, Hatfield, Pa.). Analyses of islet areas and entire section areas were performed using ImageJ software (NIH, MD). Three sections from each of 6 animals per treatment group were analyzed. Data are presented as mean±SEM. *, p<0.05; **, p<0.01; ***, p<0.001 by One-way ANOVA.
Male ZDF Leprfa/Crl rats were received at 5 weeks of age from Charles River Laboratories Inc., (Wilmington, Mass.) and were acclimated until study initiation at 6 weeks of age. Drugs were given to the animals in Purina 5008 for 10 weeks at doses approximately 170 mg/kg/d of ranolazine, 0.6 mg/kg/d of compound A and 30 mg/kg/d of sitagliptin as positive control. Fasting (12-14 h fast) and non-fasting blood samples were obtained by tail-nick and blood glucose was measured using a Freestyle Lite glucose meter (Abbott Laboratories Inc., Abbott Park, Ill.). HbA1c levels were monitored every other week. Twenty four hour water consumption as surrogate marker for diabetes for each rat was measured at least once per week.

rat pancreatic islets [4] = experiment: Veratridine-induced glucagon secretion in rat pancreatic islets; format: cell-based; conditions: veratridine 30 μM
human pancreatic islets [5] = experiment: Glucagon secretion in human pancreatic islets under low glucose (3 mM), ELISA; format: cell-based; conditions: 3 mM glucose
human pancreatic islets [6] = experiment: Veratridine-induced glucagon secretion in human pancreatic islets; format: cell-based; conditions: veratridine 30 μM
hNaV1.7 = hNaV1.7 (Homo sapiens, UniProt Q15858); experiment: Voltage-dependent block (VDB) of hNaV1.7, QPatch whole-cell voltage-clamp in HEK-293 cells; format: cell-based; conditions: 8 s prepulse to −60 mV; at a given concentration (not given)
Procedure: (§1) Voltage-dependent block (VDB) of […] was determined by whole-cell voltage-clamp recordings of sodium current using a QPatch 16× automated electrophysiological system in HEK 293 cells overexpressing Nav 1.3 and Nav 1.7 sodium channels, respectively. VDB of peak current was measured using an 8 s conditioning prepulse (to -55 mV for NaV1.3 and to −60 mV for […]) followed by a test pulse (0 mV, 20 ms). Currents are normalized to the peak current recorded in the absence of drug and expressed as percent inhibition. […] Glucagon secretion in the cells was induced by the treatment with veratridine at 30 μM for 1 hour in Krebs-Ringer buffer containing 0.1% BSA. Percent inhibition of glucagon secretion by Na channel blockers was calculated from the reduction of veratridine-induced glucagon secretion in the absence of drug.
The cells were continuously maintained in a humidified, 5% CO2 atmosphere at 37° C. in MEM growth medium supplemented with 10% FBS, 2 mM L-glutamine, 100 U/mL penicillin, 100 μg/mL streptomycin, 0.6 mg/mL G418 and 2 μg/mL blastocydin.
(§2) Whole-cell voltage-clamp recordings were used to measure the activity of test compounds against hNaV1.3 and hNaV1.7. Sodium currents were recorded at room temperature using a QPatch 16× automated electrophysiological system (Sophion Bioscience, Copenhagen, Denmark). Cells were washed with PBS and then incubated with Detachin for 2 minutes at room temperature. Cells were then resuspended in growth media, pelleted by centrifugation and resuspended in CHO-S-SFM II serum free media supplemented with 100 U/mL penicillin, 100 μg/mL streptomycin and 10 mM HEPES. The cells were allowed to recover for 30 min at room temperature with constant stirring and then loaded into the QPatch cell holder.
(§3) The cells were loaded into primed single hole (2 MΩ) large QPlates and the whole-cell configuration was established using the default protocol. Cells were allowed to stabilize for 10 min after establishment of the whole-cell configuration before current was measured. […] All currents are low-pass Bessel filtered at 5 kHz and digitized at 50 kHz.
(§4) Specific voltage-clamp protocols assessing voltage-dependent block (VDB, also termed state-dependent block) are used. VDB of peak current was measured following an 8 s conditioning prepulse (to -55 mV for NaV1.3 and to −60 mV for NaV1.7) followed by a test pulse to 0 mV (20 ms). An interpulse (−120 mV, 10 ms) was used to recover non-drug bound channels from fast inactivation. The prepulse potential was determined by the steady-state inactivation curves for NaV1.3 and NaV1.7. […] Multiple applications of drug were used to ensure complete solution exchange and the cells were allowed to stabilize in the drug containing solution for two minutes. Currents were normalized to the peak current recorded in the absence of drug and expressed as percent inhibition.

hNaV1.3 = target: T1, hNaV1.3 (Homo sapiens, UniProt Q9NY46); experiment: Voltage-dependent block (VDB) of hNaV1.3, QPatch whole-cell voltage-clamp in HEK-293 cells; format: cell-based; conditions: 8 s prepulse to -55 mV; at a given concentration (not given)
T1 construct: (Vanderbilt University, Nashville, Tenn.)
Procedure: as §1
(Vanderbilt University, Nashville, Tenn.). The cells were continuously maintained in a humidified, 5% CO2 atmosphere at 37° C. in DMEM high glucose growth medium supplemented with 10% FBS, 2 mM L-glutamine, 100 U/mL penicillin, 100 μg/mL streptomycin, 1 mg/mL G418 and 3 μg/mL puromycin.
as §2, §3, §4

rat pancreatic islets [7] = experiment: Arginine-induced glucagon secretion in rat pancreatic islets; format: cell-based; conditions: L-arginine 20 mM
[8] = after 8 weeks treatment, fluorescence staining

hNaV1.7, sequence (Q15858 1-1977 isoform Q15858-3): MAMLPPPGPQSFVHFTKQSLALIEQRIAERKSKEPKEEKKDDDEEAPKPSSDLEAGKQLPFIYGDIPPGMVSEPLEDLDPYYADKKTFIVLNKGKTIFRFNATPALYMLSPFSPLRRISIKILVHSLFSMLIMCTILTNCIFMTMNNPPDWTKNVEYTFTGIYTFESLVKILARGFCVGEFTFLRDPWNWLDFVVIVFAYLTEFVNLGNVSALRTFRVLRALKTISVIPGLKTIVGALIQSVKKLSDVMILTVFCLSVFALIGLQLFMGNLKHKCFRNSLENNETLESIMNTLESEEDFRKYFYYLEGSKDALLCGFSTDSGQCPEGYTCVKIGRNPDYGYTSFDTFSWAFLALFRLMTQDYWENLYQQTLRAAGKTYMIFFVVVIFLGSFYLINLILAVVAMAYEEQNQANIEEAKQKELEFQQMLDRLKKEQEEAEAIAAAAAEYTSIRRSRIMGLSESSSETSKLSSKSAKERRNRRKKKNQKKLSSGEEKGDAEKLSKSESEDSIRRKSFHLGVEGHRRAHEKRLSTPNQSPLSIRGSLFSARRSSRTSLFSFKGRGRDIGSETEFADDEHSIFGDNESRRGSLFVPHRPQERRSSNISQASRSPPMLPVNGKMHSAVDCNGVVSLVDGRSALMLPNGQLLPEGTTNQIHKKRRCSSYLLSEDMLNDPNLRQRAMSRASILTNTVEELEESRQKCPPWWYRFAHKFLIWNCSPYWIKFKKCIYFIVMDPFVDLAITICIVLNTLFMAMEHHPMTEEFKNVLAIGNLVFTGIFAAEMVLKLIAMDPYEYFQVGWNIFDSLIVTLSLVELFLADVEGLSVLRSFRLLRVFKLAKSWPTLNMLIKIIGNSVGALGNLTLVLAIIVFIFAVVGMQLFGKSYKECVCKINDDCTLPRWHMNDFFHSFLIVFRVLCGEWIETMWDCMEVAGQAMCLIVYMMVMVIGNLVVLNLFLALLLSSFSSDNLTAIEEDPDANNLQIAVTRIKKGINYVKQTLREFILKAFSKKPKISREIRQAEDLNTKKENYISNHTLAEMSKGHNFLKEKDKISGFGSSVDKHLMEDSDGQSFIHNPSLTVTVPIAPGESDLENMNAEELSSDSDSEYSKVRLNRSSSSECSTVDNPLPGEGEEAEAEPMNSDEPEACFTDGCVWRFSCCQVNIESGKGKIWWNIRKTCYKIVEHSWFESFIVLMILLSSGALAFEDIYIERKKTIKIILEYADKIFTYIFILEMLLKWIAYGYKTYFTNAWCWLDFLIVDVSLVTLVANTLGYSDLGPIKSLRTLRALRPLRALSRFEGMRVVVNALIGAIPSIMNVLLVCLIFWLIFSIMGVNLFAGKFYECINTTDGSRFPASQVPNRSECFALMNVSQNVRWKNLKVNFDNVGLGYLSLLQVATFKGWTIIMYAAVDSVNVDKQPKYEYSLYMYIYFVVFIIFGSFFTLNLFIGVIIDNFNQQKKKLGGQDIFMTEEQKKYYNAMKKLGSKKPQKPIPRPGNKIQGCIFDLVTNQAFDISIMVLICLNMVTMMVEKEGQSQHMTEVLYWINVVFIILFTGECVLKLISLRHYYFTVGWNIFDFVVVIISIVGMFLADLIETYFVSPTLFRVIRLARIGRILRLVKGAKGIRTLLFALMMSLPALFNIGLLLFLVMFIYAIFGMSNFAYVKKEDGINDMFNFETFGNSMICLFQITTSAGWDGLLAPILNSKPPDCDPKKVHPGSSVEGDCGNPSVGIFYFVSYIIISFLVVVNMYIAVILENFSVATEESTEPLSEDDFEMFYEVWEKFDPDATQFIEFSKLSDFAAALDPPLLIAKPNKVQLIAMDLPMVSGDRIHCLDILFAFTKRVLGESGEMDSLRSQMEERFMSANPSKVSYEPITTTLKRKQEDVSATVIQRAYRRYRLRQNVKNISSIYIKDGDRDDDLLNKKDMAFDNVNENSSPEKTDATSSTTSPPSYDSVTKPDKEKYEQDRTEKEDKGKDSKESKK
hNaV1.7, sequence (Q07699 19-218 partner): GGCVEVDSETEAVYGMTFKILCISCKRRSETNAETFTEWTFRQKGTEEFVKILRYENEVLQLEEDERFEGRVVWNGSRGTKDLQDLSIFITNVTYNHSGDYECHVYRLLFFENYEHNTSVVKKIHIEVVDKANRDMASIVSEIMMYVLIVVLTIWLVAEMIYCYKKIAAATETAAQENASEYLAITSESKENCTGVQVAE
T1 sequence (Q9NY46 1-1951 isoform Q9NY46-4): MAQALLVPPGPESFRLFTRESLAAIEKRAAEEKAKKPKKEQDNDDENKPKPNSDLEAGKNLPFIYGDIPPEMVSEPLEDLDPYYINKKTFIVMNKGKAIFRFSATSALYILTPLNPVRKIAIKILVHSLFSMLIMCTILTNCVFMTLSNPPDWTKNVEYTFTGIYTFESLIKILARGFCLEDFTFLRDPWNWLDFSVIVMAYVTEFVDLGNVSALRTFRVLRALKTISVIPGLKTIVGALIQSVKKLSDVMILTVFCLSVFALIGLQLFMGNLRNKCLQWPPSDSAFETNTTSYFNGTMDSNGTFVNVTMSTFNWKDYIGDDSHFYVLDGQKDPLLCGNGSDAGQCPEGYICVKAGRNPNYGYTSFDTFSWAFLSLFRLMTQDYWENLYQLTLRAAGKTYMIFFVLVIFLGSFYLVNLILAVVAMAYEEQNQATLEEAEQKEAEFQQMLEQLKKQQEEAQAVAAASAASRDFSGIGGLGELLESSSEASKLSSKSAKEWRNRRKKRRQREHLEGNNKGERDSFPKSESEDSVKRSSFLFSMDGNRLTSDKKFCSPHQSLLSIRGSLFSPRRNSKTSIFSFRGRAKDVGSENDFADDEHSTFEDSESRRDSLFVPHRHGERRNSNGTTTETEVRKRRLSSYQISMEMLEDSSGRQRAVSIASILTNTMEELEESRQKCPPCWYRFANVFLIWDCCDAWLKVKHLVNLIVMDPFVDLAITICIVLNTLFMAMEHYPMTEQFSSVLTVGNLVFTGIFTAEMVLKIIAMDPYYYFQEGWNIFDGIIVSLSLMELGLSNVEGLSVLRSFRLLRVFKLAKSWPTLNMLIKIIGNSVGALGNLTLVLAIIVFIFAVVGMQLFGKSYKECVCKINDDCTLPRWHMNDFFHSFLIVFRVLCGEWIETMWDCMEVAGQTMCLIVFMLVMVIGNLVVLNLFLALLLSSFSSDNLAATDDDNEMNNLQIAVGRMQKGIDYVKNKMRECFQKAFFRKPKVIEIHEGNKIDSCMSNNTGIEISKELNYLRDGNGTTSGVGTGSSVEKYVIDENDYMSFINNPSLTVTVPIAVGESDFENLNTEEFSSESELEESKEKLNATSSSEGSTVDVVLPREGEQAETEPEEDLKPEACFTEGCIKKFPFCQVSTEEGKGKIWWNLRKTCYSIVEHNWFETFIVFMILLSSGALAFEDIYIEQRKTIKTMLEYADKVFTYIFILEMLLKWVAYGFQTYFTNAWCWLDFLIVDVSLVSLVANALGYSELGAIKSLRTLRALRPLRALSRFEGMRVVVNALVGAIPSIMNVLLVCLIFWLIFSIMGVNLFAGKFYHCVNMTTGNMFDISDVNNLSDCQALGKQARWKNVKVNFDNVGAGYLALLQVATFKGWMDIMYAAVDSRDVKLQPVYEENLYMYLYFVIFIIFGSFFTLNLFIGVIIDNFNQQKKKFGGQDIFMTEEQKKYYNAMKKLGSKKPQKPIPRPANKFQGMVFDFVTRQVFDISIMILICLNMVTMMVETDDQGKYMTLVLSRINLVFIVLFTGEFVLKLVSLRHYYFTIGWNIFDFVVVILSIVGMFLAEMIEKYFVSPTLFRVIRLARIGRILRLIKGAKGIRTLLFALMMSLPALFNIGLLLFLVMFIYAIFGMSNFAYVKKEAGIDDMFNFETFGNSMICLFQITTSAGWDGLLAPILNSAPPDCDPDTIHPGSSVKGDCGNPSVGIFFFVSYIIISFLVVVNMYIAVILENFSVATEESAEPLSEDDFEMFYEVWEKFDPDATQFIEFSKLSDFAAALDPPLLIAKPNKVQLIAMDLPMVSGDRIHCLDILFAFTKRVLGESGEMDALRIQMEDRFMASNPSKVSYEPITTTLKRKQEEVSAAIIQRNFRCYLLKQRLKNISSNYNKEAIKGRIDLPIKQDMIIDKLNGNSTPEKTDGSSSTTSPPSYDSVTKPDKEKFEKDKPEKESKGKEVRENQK
T1 sequence (Q07699 19-218 partner): as the sequence (Q07699 19-218 partner) above
T1 sequence (O60939 30-215 partner): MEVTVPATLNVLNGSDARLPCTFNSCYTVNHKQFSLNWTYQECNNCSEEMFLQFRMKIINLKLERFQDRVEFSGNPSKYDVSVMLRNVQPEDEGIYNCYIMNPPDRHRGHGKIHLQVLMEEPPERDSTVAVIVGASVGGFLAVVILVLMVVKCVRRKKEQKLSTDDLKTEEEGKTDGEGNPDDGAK

Row | SMILES | insulin staining per islet (ZDF diabetic rats; 10 weeks treatment) [%] | islet area/pancreas area (ZDF diabetic rats; 10 weeks treatment) [%] | staining of glucagon per islet versus vehicle (ZDF diabetic rats; 10 weeks treatment) | water consumption (surrogate marker for diabetes) (ZDF diabetic rats) | HbA1c levels versus vehicle group (ZDF diabetic rats) | fasting plasma glucose levels versus vehicle (ZDF diabetic rats) | reduction of veratridine-induced glucagon secretion (in words) (rat pancreatic islets [4]) | hNav1.7 VDB % Inhibition (hNaV1.7) [%] | hNav1.3 VDB % Inhibition (hNaV1.3) [%] | other results
1 | COc1ccccc1OCC(O)CN1CCN(CC(=O)Nc2c(C)cccc2C)CC1 (racemic) [Ranolazine, ±-N-(2,6-dimethylphenyl)-4-[2-hydroxy-3-(2-methoxyphenoxy)-propyl]-1-piperazineacetamide] | 91.2±1.5 | 0.36±0.1 | significantly less | significantly prevented the increase | significantly lower | significantly lower | concentration-dependently reduced | 17.23 | 11.21 | fasting plasma glucose (FPG) ([1]; 20 mg/kg p.o. twice daily, week 4): 264 ± 30 mg/dL; fasting plasma glucose (FPG) ([1]; 20 mg/kg p.o. twice daily, week 6 to week 8): 188 ± 20 mg/dL; HbA1c ([1]; 20 mg/kg p.o. twice daily, week 8): 4.6±0.2%; insulin-positive area per islet [1, 8]: 69±2.4%; percentage of total islet (insulin and glucagon) area [1, 8]: 0.30±0.03%; reduction of epinephrine-induced increase of glucagon secretion (rat pancreatic islets [2]): 44±8%; maximal reduction of glucagon secretion as compared to the vehicle control (rat pancreatic islets [3]; at 30 μM): 53±6%; insulin/glucagon ratio (ZDF diabetic rats; 10 weeks treatment): 12.1±2.4; maximal reduction of glucagon secretion as compared to the vehicle control (human pancreatic islets [5]; at 30 μM): 36±4%; reduction of veratridine-induced glucagon secretion (human pancreatic islets [6]; at 30 μM): 36±9%; reduction of L-arginine-induced increase in glucagon secretion (rat pancreatic islets [7]; at 10 μM): 31±9%
2 | FC(F)(F)Oc1ccc(-c2ccc3nnc(C(F)(F)F)n3c2)cc1 [Compound A, 6-(4-(trifluoromethoxy)phenyl)-3-(trifluoromethyl)-[1,2,4]triazolo[4,3-α]pyridine] | 90.0±2.8 | 0.51±0.16 | significantly less | significantly prevented the increase | significantly lower | significantly lower | concentration-dependently reduced | 87.17 | 65.42 | maximal reduction of glucagon secretion as compared to the vehicle control (rat pancreatic islets [3]; at 3 μM): 53±8%; maximal reduction of glucagon secretion as compared to the vehicle control (human pancreatic islets [5]; at 3 μM): 51±9%; reduction of veratridine-induced glucagon secretion (human pancreatic islets [6]; at 3 μM): 58±7%; reduction of L-arginine-induced increase in glucagon secretion (rat pancreatic islets [7]; at 1 μM): 24±6%
